Series [1] deals with T1, Peroxisome proliferator-activated receptor gamma (Homo sapiens, UniProt P37231).
T1 sequence (P37231 whole entry): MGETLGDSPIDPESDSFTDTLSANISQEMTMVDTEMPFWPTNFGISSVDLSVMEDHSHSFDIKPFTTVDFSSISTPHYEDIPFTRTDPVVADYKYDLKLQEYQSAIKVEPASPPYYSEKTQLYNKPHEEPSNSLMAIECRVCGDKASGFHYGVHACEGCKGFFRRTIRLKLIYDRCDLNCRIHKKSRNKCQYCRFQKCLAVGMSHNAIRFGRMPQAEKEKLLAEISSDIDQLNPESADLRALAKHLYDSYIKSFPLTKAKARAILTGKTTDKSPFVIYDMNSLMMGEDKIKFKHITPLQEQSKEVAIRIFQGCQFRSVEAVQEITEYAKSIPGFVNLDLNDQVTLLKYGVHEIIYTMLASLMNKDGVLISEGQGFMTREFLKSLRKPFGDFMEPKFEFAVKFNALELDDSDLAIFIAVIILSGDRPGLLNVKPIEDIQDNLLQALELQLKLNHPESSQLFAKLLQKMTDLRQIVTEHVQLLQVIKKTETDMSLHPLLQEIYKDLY
Description: Agonist activity at human PPARgamma assessed as receptor activation by cell based assay

The target of series [2] is T2, Peroxisome proliferator-activated receptor delta (Homo sapiens, UniProt Q03181).
T2 sequence (Q03181 whole entry): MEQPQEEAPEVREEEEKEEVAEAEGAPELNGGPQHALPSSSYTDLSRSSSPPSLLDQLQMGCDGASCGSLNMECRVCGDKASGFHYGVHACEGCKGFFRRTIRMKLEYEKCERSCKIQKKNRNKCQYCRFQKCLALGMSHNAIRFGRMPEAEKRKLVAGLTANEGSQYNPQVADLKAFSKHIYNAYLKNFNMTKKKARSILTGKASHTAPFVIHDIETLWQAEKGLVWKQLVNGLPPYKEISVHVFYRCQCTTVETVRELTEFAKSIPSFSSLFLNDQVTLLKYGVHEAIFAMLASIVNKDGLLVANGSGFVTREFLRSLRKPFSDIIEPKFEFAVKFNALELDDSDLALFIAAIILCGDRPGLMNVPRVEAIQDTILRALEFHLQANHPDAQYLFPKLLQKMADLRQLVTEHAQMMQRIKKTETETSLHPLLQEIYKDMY
Description: Agonist activity at human PPARdelta assessed as receptor activation by cell based assay

The target in series [3] is T3, Peroxisome proliferator-activated receptor delta (Mus musculus, UniProt P35396).
T3 sequence (P35396 whole entry): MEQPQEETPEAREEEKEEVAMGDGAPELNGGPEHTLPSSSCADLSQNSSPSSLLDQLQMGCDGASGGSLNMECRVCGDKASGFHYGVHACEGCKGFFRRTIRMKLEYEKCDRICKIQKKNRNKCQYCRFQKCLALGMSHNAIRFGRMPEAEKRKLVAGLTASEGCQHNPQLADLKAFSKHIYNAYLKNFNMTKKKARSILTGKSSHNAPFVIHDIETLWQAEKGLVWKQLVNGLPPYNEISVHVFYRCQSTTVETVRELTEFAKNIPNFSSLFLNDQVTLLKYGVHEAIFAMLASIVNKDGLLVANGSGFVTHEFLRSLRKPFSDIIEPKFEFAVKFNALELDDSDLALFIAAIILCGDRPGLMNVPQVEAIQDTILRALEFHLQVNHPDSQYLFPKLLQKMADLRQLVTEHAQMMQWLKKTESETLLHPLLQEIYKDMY
Description: Agonist activity at mouse PPARdelta assessed as receptor activation by cell based assay

Series [4] addresses T4, Peroxisome proliferator-activated receptor alpha (Homo sapiens, UniProt Q07869).
T4 sequence (Q07869 whole entry): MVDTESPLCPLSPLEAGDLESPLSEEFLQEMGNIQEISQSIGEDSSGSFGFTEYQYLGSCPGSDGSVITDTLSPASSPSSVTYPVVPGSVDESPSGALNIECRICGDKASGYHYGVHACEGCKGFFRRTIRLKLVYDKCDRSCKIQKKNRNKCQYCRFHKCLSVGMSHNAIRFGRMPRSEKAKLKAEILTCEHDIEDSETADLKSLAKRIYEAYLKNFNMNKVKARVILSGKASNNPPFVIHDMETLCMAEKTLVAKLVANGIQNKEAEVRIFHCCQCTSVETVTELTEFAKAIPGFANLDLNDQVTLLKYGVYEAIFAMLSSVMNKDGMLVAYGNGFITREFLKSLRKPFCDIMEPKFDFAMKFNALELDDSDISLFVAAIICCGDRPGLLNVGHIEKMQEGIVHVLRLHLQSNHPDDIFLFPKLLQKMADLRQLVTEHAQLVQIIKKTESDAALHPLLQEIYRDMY
Description: Agonist activity at human PPARalpha assessed as receptor activation by cell based assay

Series [5] has as its target T5, Peroxisome proliferator-activated receptor alpha (Mus musculus, UniProt P23204).
T5 sequence (P23204 whole entry): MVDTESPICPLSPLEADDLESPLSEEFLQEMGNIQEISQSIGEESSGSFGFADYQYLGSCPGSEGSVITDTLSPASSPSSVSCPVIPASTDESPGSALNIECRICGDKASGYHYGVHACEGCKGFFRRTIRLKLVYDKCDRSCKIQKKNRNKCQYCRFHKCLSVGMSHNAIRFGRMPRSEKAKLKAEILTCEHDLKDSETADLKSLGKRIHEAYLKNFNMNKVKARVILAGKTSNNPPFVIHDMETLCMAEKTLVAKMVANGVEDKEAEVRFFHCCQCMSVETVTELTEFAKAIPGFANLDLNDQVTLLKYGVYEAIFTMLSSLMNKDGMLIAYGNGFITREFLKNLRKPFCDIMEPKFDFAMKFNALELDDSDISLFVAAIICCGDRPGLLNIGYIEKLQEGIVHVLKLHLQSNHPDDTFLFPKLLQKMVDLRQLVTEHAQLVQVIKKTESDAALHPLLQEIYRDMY
Description: (§1) Agonist activity at mouse PPARalpha assessed as receptor activation by cell based assay

In series [6] the target is T6, Peroxisome proliferator-activated receptor alpha (Mus musculus) (UniProt P23204).
T6 sequence (whole entry): T5 sequence (P23204 whole entry)
Description: as §1

The target of series [7] is T7, Peroxisome proliferator-activated receptor gamma (Mus musculus, UniProt P37238).
T7 sequence (P37238 whole entry): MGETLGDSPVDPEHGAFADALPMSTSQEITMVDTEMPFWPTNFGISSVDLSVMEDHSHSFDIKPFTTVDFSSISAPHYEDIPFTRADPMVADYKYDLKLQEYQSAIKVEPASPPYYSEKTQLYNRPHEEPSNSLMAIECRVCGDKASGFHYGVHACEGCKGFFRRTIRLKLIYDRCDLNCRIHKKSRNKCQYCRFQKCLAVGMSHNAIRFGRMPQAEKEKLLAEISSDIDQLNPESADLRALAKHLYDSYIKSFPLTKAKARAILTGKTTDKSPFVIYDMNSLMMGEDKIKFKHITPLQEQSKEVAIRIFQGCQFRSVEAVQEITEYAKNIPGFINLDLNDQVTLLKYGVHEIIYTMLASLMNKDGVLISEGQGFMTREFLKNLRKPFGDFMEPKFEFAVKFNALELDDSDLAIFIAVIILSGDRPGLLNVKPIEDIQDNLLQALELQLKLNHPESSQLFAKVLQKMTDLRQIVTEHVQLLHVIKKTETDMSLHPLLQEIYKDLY
Description: Agonist activity at mouse PPARgamma assessed as receptor activation by cell based assay

Series [8] in a line: Volume of distribution in mouse plasma at 0.2 mg/kg, iv or 5 mg/kg, po. Particulars: read-out: Vdss. The format is ADME, organism-based.
Series [9] is described as follows: AUC in mouse plasma at 5 mg/kg, po. In kind it is ADME, organism-based. Set-up: dose 5 mg/kg, route oral.
The subject of series [10] is Mus musculus. Kind of series: Reduction of VLDL cholesterol level in human Apo-A1 transgenic C57B6 mouse at 20 mg/kg, po bid after 5 days. The format is functional. The arrangement: scale not given: the % may be the effect or the level left.
Series [11] deals with Mus musculus. Kind of series: Reduction of LDL cholesterol level in human Apo-A1 transgenic C57B6 mouse at 20 mg/kg, po bid after 5 days. The format is functional. The arrangement: scale not given: the % may be the effect or the level left.
Series [12] deals with Mus musculus. Description: Elevation of HDL cholesterol level in human Apo-A1 transgenic C57B6 mouse at 20 mg/kg, po bid after 5 days. In kind it is functional.
Series [13] in a line: Oral bioavailability in mouse at 5 mg/kg. The format is ADME, organism-based. As to conditions: in vivo.
Series [14] can be described thus: Clearance in mouse plasma at 0.2 mg/kg, iv or 5 mg/kg, po. In kind it is ADME, organism-based.
Series [15] has as its system Mus musculus. Description: Reduction of triglyceride level in human Apo-A1 transgenic C57B6 mouse at 20 mg/kg, po bid after 5 days. The format is functional. Set-up: scale not given: the % may be the effect or the level left.
Series [16] is described as follows: Cmax in mouse plasma at 5 mg/kg, po. The format is ADME, organism-based. Set-up: dose 5 mg/kg, route oral.
Series [17] is described as follows: Half life in mouse plasma at 0.2 mg/kg, iv or 5 mg/kg, po. In kind it is ADME, organism-based.

For `Cc1nc(-c2ccc(C(F)(F)F)cc2)sc1C(=O)NCc1ccc(NS(=O)(=O)C(F)(F)F)cc1`, the EC50 (as a rule, the midpoint of the concentration-response curve) was found to be 500 nM in series [1]; 400 nM in [2]; 300 nM in series [3]; 0.3 nM in [4]; 2 nM in series [5]; 600 nM in series [7]. In addition, the Activity in series [6] turned out to be 98%.
Regarding `O=C(NCc1ccc(NS(=O)(=O)C(F)(F)F)cc1)c1ccc(-c2ccc(Cl)cc2)cc1`, the EC50 is 1100 nM in series [1]; > 10000 nM in series [2]; > 10000 nM in series [3]; 5 nM in series [4]; 20 nM in series [5]; 600 nM in series [7]. Also, the Vd in [8] stood at 0.22 L/kg. Besides, in series [9], the AUC (usually concentration integrated over time) was determined as 18800 ng·h/mL. In addition, the Activity in [10] is -85%; in series [11], -55%; in series [12] it was 102%; in series [15], -69%; in [6], 123%. The bioavailability (in general, the share of a dose that reaches the circulation, judged against a reference dose that is usually intravenous) in series [13] is 16%. The clearance in [14] worked out at 0.78 mL/min/kg. The Cmax (commonly the highest concentration seen after dosing) in series [16] amounted to 4520 ng/mL. In addition, the half-life (usually the time needed for the level to fall by half in the phase considered) in series [17] is 4.9 h.
As to `Cc1nc(-c2ccc(C(F)(F)F)cc2)sc1C(=O)NCc1ccc(NS(C)(=O)=O)cc1`, the EC50 was > 10000 nM in [1]; > 10000 nM in [2]; > 10000 nM in series [3]; 60 nM in series [4]; 800 nM in series [5]; > 10000 nM in [7]. In addition, in series [6], the Activity is 78%.

Values taken from ChEMBL document CHEMBL1140804, “Design, synthesis and evaluation of trifluoromethane sulfonamide derivatives as new potent and selective peroxisome proliferator-activated receptor alpha agonists” (Bioorg Med Chem Lett, 2008).
